Experimental findings from patent US20250051347A1, “BIFUNCTIONAL CHIMERIC HETEROCYCLIC COMPOUND AND USE THEREOF AS ANDROGEN RECEPTOR DEGRADER” (Hinova Pharmaceuticals, Inc., priority 2021, published 2025) are described below.

In this test the target is T1, androgen receptor (AR) splicing variant AR-v7 (Homo sapiens, UniProt P10275).
T1 construct: The degradation activity of compounds on AR-v7 in 22RV1 cells; host or cells: 22RV1 cells
T1 sequence (P10275 1-644 isoform P10275-3): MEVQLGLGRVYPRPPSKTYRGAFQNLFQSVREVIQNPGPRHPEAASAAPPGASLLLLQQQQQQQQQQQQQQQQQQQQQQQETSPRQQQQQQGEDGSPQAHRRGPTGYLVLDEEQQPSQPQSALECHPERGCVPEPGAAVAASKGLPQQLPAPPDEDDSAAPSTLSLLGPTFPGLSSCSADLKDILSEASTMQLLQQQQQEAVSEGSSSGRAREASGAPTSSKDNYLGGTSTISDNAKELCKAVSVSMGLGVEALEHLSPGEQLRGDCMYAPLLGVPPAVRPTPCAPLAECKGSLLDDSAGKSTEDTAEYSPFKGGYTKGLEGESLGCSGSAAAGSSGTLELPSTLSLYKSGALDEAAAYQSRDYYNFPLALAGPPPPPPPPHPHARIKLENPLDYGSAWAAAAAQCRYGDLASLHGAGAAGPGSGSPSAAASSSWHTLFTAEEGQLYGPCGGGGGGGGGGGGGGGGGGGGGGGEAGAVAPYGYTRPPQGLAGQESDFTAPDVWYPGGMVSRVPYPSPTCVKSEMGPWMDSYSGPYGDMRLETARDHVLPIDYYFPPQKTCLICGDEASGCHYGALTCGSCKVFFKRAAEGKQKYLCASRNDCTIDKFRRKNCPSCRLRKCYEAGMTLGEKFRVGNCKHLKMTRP
In words: Degradation activity on androgen receptor splicing variant AR-v7 in 22RV1 cells (ELISA). Conditions: AR-v7 degradation in 22RV1 cells, 48 h. The test is classed as cell-based. On the technique in general: An ELISA detects its analyte on a solid surface through an enzyme-linked reagent.

One may read the DC50 as the concentration giving 50% degradation.

Turning to `CC(C)(c1ccc(OCc2ccc(F)c(-n3nccn3)n2)cc1)c1ccc(O[C@H]2C[C@H](Nc3ccc4c(c3)C(=O)N(C3CCC(=O)NC3=O)C4=O)C2)cc1` (some centres unmarked) [Example 287], the DC50 (class symbols) lay in the range of 11 to 100 nM.

On to `Cc1nc(-c2nccc(Oc3ccc(C(C)(C)c4ccc(O[C@H]5C[C@@H](Nc6ccc7c(c6)C(=O)N(C6CCC(=O)NC6=O)C7=O)C5)cc4)cc3)n2)no1` (some centres unmarked) [Example 292], for which the DC50 (class symbols) was in the range of 11 to 100 nM.

For the setting “class symbols”, `Cc1noc(-c2ncc(Oc3ccc(C4(c5ccc(O[C@H]6C[C@H](Nc7ccc8c(c7)C(=O)N(C7CCC(=O)NC7=O)C8=O)C6)cc5)CCCC4)cc3)cn2)n1` (some centres unmarked) [Example 297] displayed a DC50 of less than 10 nM.

Take `CC(=O)c1nccc(COc2ccc(C(C)(C)c3ccc(OCCCCCCCCOCC4CN(c5ccc6c(c5)C(=O)N(C5CCC(=O)NC5=O)C6=O)C4)cc3)cc2)n1` (centres unmarked) [Example 298]: the 50% degradation concentration (DC50) (numeric values) was more than 10000 nM.

`CC(=O)c1nccc(COc2ccc(C(C)(C)c3ccc(OCCCCCCCCOCCN4CCN(c5ccc6c(c5)C(=O)N(C5CCC(=O)NC5=O)C6=O)CC4)cc3)cc2)n1` (centres unmarked) [Example 299, 5-(4-(2-((8-(4-(2-(4-((2-acetylpyrimidin-4-yl)methoxy)phenyl)propan-2-yl)phenoxy)octyl)oxy)ethyl)piperazin-1-yl)-2-(2,6-dioxopiperidin-3-yl)isoindolin-1,3-dione] returned a 50% degradation concentration (DC50) (numeric values) of more than 10000 nM.

Turning to `CC(O)c1nccc(COc2ccc(C(C)(C)c3ccc(OCCCCCCCCOCCN4CCN(c5ccc6c(c5)C(=O)N(C5CCC(=O)NC5=O)C6=O)CC4)cc3)cc2)n1` (centres unmarked) [Example 300], the DC50 (numeric values) was more than 10000 nM.

Turning to `CC(=O)c1nccc(COc2ccc(C(C)(C)c3ccc(OCC4CCN(c5cccc6c5C(=O)N(C5CCC(=O)NC5=O)C6=O)C4)cc3)cc2)n1` (centres unmarked) [Example 301, 4-(3-((4-(2-(4-((2-acetylpyrimidin-4-yl)methoxy)phenyl)propan-2-yl)phenoxy)methyl)pyrrolidin-1-yl)-2-(2,6-dioxopiperidin-3-yl)isoindolin-1,3-dione], the DC50 (numeric values) was more than 10000 nM.

Molecule `CC(=O)c1nccc(COc2ccc(C(C)(C)c3ccc(OCC4CCN(c5ccc6c(c5)C(=O)N(C5CCC(=O)NC5=O)C6=O)C4)cc3)cc2)n1` (centres unmarked) [Example 302, 5-(3-((4-(2-(4-((2-acetylpyrimidin-4-yl)methoxy)phenyl)propan-2-yl)phenoxy)methyl)pyrrolidin-1-yl)-2-(2,6-dioxopiperidin-3-yl)isoindolin-1,3-dione] came in with a DC50 (numeric values) not below 10000 nM.

Consider `CC(=O)c1nccc(COc2ccc(C(C)(C)c3ccc(OCC4CCCN(c5cccc6c5C(=O)N(C5CCC(=O)NC5=O)C6=O)C4)cc3)cc2)n1` (centres unmarked) [Example 303, 4-(3-((4-(2-(4-((2-acetylpyrimidin-4-yl)methoxy)phenyl)propan-2-yl)phenoxy)methyl)piperidin-1-yl)-2-(2,6-dioxopiperidin-3-yl)isoindolin-1,3-dione], for which the half-maximal degradation concentration (DC50) (numeric values) was more than 10000 nM.

Molecule `CC(=O)c1nccc(COc2ccc(C(C)(C)c3ccc(OCC4CCCN(c5ccc6c(c5)C(=O)N(C5CCC(=O)NC5=O)C6=O)C4)cc3)cc2)n1` (centres unmarked) [Example 304, 5-(3-((4-(2-(4-((2-acetylpyrimidin-4-yl)methoxy)phenyl)propan-2-yl)phenoxy)methyl)piperidin-1-yl)-2-(2,6-dioxopiperidin-3-yl)isoindolin-1,3-dione] registered a DC50 (numeric values) of more than 2500 nM.

`CC(=O)c1nccc(COc2ccc(C(C)(C)c3ccc(N4CCC5(CC4)CN(c4ccc6c(c4)C(=O)N(C4CCC(=O)NC4=O)C6=O)C5)cc3)cc2)n1` (centres unmarked) [Example 305] had a 50% degradation concentration (DC50) (class symbols) of 1000 to 5000 nM.

In turn, `CC(=O)c1nccc(COc2ccc(C(C)(C)c3ccc(OC[C@H]4CCN4c4ccc5c(c4)C(=O)N(C4CCC(=O)NC4=O)C5=O)cc3)cc2)n1` (stereo partly drawn) [Example 307, 5-((R)-2-((4-(2-(4-((2-acetylpyrimidin-4-yl)methoxy)phenyl)propan-2-yl)phenoxy)methyl)azetidin-1-yl)-2-(2,6-dioxopiperidin-3-yl)isoindolin-1,3-dione] returned a DC50 (class symbols) of 1000 to 5000 nM.

The molecule `CC(C)(c1ccc(C#CCNc2ccc3c(c2)C(=O)N(C2CCC(=O)NC2=O)C3=O)cc1)c1ccc(OCc2ccnc(N3CC4(COC4)C3)n2)cc1` (centres unmarked) [Example 309, 5-((3-(4-(2-(4-((2-(2-oxa-6-azaspiro[3.3]heptan-6-yl)pyrimidin-4-yl)methoxy)phenyl)propan-2-yl)phenyl)prop-2-yn-1-yl)amino)-2-(2,6-dioxopiperidin-3-yl)isoindolin-1,3-dione] had a DC50 (class symbols) of 11 to 100 nM.

As to `CC(C)(c1ccc(OCC#Cc2ccc3c(c2)C(=O)N(C2CCC(=O)NC2=O)C3=O)cc1)c1ccc(OCc2ccnc(N3CC4(COC4)C3)n2)cc1` (centres unmarked) [Example 310], for the setting “class symbols”, the DC50 was 101 to 1000 nM.

Turning to `CC(C)(c1ccc(OCc2ccnc(N3CC4(COC4)C3)n2)cc1)c1ccc(OC[C@@H]2CCCN2c2ccc3c(c2)C(=O)N(C2CCC(=O)NC2=O)C3=O)cc1` (stereo partly drawn) [Example 313, 5-((S)-2-((4-(2-(4-((2-(2-oxa-6-azaspiro[3.3]heptane-6-yl)pyrimidin-4-yl)methoxy)phenyl)propan-2-yl)phenoxy)methyl)pyrrolidin-1-yl)-2-(2,6-dioxopiperidin-3-yl)isoindolin-1,3-dione], the DC50 (class symbols) is 101 to 1000 nM.

Turning to `CC(C)(c1ccc(OCc2ccnc(N3CC4(COC4)C3)n2)cc1)c1ccc(OC[C@H]2CCCN2c2ccc3c(c2)C(=O)N(C2CCC(=O)NC2=O)C3=O)cc1` (stereo partly drawn) [Example 314, 5-((R)-2-((4-(2-(4-((2-(2-oxa-6-azaspiro[3.3]heptan-6-yl)pyrimidin-4-yl)methoxy)phenyl)propan-2-yl)phenoxy)methyl)pyrrolidin-1-yl)-2-(2,6-dioxopiperidin-3-yl)isoindolin-1,3-dione], under “class symbols”, the DC50 lay within 1000 to 5000 nM.

Take `CC(C)(c1ccc(OCc2ccnc(N3CC4(COC4)C3)n2)cc1)c1ccc(O[C@H]2CCC[C@H]2Nc2ccc3c(c2)C(=O)N(C2CCC(=O)NC2=O)C3=O)cc1` (some centres unmarked) [Example 315]: the DC50 (class symbols) lay in the range of 1000 to 5000 nM.

`CC(C)(c1ccc(Oc2ncc(I)cn2)cc1)c1ccc(O[C@H]2C[C@@H](Nc3ccc4c(c3)C(=O)N(C3CCC(=O)NC3=O)C4=O)C2)cc1` (some centres unmarked) [Example 316] gave a DC50 (class symbols) of 11 to 100 nM.

`CC(C)(c1ccc(Oc2ccc(N3CC4(COC4)C3)nn2)cc1)c1ccc(O[C@H]2C[C@@H](Nc3ccc4c(c3)C(=O)N(C3CCC(=O)NC3=O)C4=O)C2)cc1` (some centres unmarked) [Example 317] had a DC50 (class symbols) of 11 to 100 nM.

Under “class symbols”, `CC(C)(c1ccc(CCNc2ccc3c(c2)C(=O)N(C2CCC(=O)NC2=O)C3=O)cc1)c1ccc(OCc2ccnc(N3CC4(COC4)C3)n2)cc1` (centres unmarked) [Example 318, 5-((4-(2-(4-((2-(2-oxa-6-azaspiro[3.3]heptan-6-yl)pyrimidin-4-yl)methoxy)phenyl)propan-2-yl)phenylethyl)amino)-2-(2,6-dioxopiperidin-3-yl)isoindolin-1,3-dione] registered a DC50 of 101 to 1000 nM.

As for `CC(C)(c1ccc(Oc2nc(-n3ccnn3)ccc2F)cc1)c1ccc(O[C@H]2C[C@H](Nc3ccc4c(c3)C(=O)N(C3CCC(=O)NC3=O)C4=O)C2)cc1` (some centres unmarked) [Example 319], the DC50 (class symbols) fell in the range of 11 to 100 nM.

`CC(C)(c1ccc(Oc2nc(-n3nccn3)ccc2F)cc1)c1ccc(O[C@H]2C[C@H](Nc3ccc4c(c3)C(=O)N(C3CCC(=O)NC3=O)C4=O)C2)cc1` (some centres unmarked) [Example 320]: the DC50 (class symbols) lay within 11 to 100 nM.

Molecule `CC(C)(c1ccc(Oc2ccc(-n3ccnn3)nn2)cc1)c1ccc(O[C@H]2C[C@H](Nc3ccc4c(c3)C(=O)N(C3CCC(=O)NC3=O)C4=O)C2)cc1` (some centres unmarked) [Example 325] displayed a DC50 (class symbols) of 11 to 100 nM.
